Assay results from patent publication US20240132475A1, “SUBSTITUTED PYRAZOLYL COMPOUNDS AS MALT-1 INHIBITORS” (AURIGENE ONCOLOGY LIMITED, priority 2021, published 2024).

Biological target: T1, MALT-1 (Isoform 1) (Homo sapiens, UniProt Q9UDY8)
T1 construct: using recombinant MALT-1 (Isoform 1, aa-840) generated in house; made in house
T1 sequence (Q9UDY8 1-824): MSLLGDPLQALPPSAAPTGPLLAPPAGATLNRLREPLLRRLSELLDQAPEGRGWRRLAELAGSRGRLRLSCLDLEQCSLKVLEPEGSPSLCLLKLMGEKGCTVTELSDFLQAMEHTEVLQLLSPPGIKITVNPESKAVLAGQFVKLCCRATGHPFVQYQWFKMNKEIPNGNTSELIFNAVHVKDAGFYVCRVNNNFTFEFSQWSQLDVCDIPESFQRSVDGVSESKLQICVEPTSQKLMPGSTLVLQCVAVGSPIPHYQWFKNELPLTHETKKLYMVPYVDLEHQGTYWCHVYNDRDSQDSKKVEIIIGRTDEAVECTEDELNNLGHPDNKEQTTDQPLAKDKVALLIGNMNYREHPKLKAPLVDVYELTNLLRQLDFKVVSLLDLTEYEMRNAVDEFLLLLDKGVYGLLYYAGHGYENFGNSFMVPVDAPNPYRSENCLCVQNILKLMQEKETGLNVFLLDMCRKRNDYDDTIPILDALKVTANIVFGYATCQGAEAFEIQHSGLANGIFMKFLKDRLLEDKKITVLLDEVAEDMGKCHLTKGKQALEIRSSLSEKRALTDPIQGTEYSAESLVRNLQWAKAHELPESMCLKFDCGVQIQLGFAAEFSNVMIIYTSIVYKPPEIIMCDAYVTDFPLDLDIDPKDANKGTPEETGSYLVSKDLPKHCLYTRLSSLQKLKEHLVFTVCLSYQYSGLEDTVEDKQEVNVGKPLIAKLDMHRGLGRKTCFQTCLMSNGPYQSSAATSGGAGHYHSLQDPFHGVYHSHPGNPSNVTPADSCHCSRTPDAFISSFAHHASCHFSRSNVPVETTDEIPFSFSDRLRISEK
Assay: MALT-1 (Isoform 1) enzyme fluorescent biochemical assay
Details: for IC50: dose-response, sigmoidal curve fit, reported as groups A, B, C; for inhibition at 1 µM / Percent Inhibition (1 μM): test compound 1 μM, recombinant MALT-1 1.5 nM; for inhibition at 1 µM: read-out: Percent Inhibition (1 μM)
Protocol: The potency of compounds to inhibit MALT-1 (Isoform 1) enzyme was tested in a Fluorescent assay using recombinant MALT-1 (Isoform 1, aa-840) generated in house. The assay buffer was 50 mM HEPES (pH 7.5), 100 mM NaCl, 10 mM DTT, 1 mM EDTA, 0.9 M sodium citrate, 0.01% CHAPS. 1.5 nM of MALT-1 enzyme was incubated with test compounds ([…]) (1% DMSO) in the presence of buffer for 30 minutes at 30° C. The protease reaction was initiated by adding […] of AC-LRSR-MAC (Peptide International, USA) substrate and incubated for 240 min. After 240 min incubation, fluorescence emission of the samples at 460 nm was measured at an excitation of 355 nm. The percent inhibition was calculated using the following formula: […]. IC50 values were determined by fitting the dose-response data to sigmoidal curve fitting equation using Graph pad prism software V8.
ND represents Not Determined.

CC(c1cccc(Cl)c1)n1ncc(C(=O)Nc2cnc(-n3nccn3)c(C#N)c2)c1C(F)(F)F (centres unmarked) [Compound 51, 1-(1-(3-chlorophenyl)ethyl)-N-(5-cyano-6-(2H-1,2,3-triazol-2-y1)pyridin-3-y1)-5-(trifluoromethyl)-1H-pyrazole-4-carboxamide]
IC50: < 250 nM | inhibition at 1 µM: 100%

O=C(Nc1cc(C(F)(F)F)ccn1)c1cnn(Cc2cccc(F)c2Cl)c1C(F)(F)F [Compound 46, 1-(2-chloro-3-fluorobenzyl)-5-(trifluoromethyl)-N-(4-(trifluoromethyl)pyridin-2-yl)-1H-pyrazole-4-carboxamide]
IC50: > 1000 nM | inhibition at 1 µM: 32%

O=C(Nc1cnnc(C(F)(F)F)c1)c1cnn(Cc2cccc(F)c2Cl)c1C(F)(F)F [Compound 53, 1-(2-chloro-3-fluorobenzyl)-5-(trifluoromethyl)-N-(6-(trifluoromethyl)pyridazin-4-yl)-1H-pyrazole-4-carboxamide]
IC50: 251 to 1000 nM | inhibition at 1 µM: 60%

N#Cc1cc(NC(=O)c2cnn(Cc3cccc(F)c3Br)c2C(F)(F)F)cnc1-n1nccn1 [Compound 38, 1-(2-bromo-3-fluorobenzy1)-N-(5-cyano-6-(2H-1,2,3-triazol-2-yl)pyridin-3-yl)-5-(trifluoromethyl)-1H-pyrazole-4-carboxamide]
IC50: < 250 nM | inhibition at 1 µM: 100%

N#Cc1cc(NC(=O)c2cnn(Cc3cccc(F)c3)c2C(F)(F)F)cnc1-n1nccn1 [Compound 15, N-(5-cyano-6-(2H-1,2,3-triazol-2-yl)pyridin-3-y1)-1-(3-fluorobenzy1)-5-(trifluoromethyl)-1H-pyrazole-4-carboxamide]
IC50: < 250 nM | inhibition at 1 µM: 99%

N#Cc1cc(NC(=O)c2cnn(Cc3cccc(F)c3)c2C2CC2)cnc1-n1nccn1 [Compound 23, N-(5-cyano-6-(2H-1,2,3-triazol-2-yl)pyridin-3-yl)-5-cyclopropyl-1-(3-fluorobenzyl)-1H-pyrazole-4-carboxamide]
IC50: > 1000 nM | inhibition at 1 µM: 45%

N#Cc1cc(NC(=O)c2cnn(Cc3cccc(C(F)(F)F)c3)c2C(F)(F)F)cnc1-n1nccn1 [Compound 14, N-(5-cyano-6-(2H-1,2,3-triazol-2-yl)pyridin-3-y1)-5-(trifluoromethyl)-1-(3-(trifluoromethyl)benzyl)-1H-pyrazole-4-carboxamide]
IC50: > 1000 nM | inhibition at 1 µM: 67%

N#Cc1cc(NC(=O)c2cnn(Cc3cccc(F)c3Cl)c2C(F)(F)F)cnc1-n1nccn1 [Compound 1, 1-(2-chloro-3-fluorobenzyl)-N-(5-cyano-6-(2H-1,2,3-triazol-2-yl)pyridin-3-yl)-5-(trifluoromethyl)-1H-pyrazole-4-carboxamide]
IC50: < 250 nM | inhibition at 1 µM: 100%

O=C(Nc1cncnc1)c1cnn(Cc2cccc(F)c2Cl)c1C(F)(F)F [Compound 41, 1-(2-chloro-3-fluorobenzyl)-N-(pyrimidin-5-y1)-5-(trifluoromethyl)-1H-pyrazole-4-carboxamide]
IC50: > 1000 nM | inhibition at 1 µM: 14%

Cc1ccc(F)cc1Cn1ncc(C(=O)Nc2cnc(-n3nccn3)c(C#N)c2)c1C(F)(F)F [Compound 28, N-(5-cyano-6-(2H-1,2,3-triazol-2-yl)pyridin-3-yl)-1-(5-fluoro-2-methylbenzyl)-5-(trifluoromethyl)-1H-pyrazole-4-carboxamide]
IC50: 251 to 1000 nM | inhibition at 1 µM: 84%

Cc1c(F)cccc1Cn1ncc(C(=O)Nc2cnc(-n3nccn3)c(F)c2)c1C(F)(F)F [Compound 30, 1-(3-fluoro-2-methylbenzyl)-N-(5-fluoro-6-(2H-1,2,3-triazol-2-yl)pyridin-3-y1)-5-(trifluoromethyl)-1H-pyrazole-4-carboxamide]
IC50: 251 to 1000 nM | inhibition at 1 µM: 97%

N#Cc1cc(NC(=O)c2cnn(Cc3cccc(F)c3C(F)F)c2C(F)(F)F)cnc1-n1nccn1 [Compound 56, N-(5-cyano-6-(2H-1,2,3-triazol-2-yl)pyridin-3-y1)-1-(2-(difluoromethyl)-3-fluorobenzyl)-5-(trifluoromethyl)-1H-pyrazole-4-carboxamide]
IC50: 251 to 1000 nM | inhibition at 1 µM: 77%

COc1cc(F)cc(Cn2ncc(C(=O)Nc3cnc(-n4nccn4)c(C#N)c3)c2C(F)(F)F)c1 [Compound 35, N-(5-cyano-6-(2H-1,2,3-triazol-2-yl)pyridin-3-yl)-1-(3-fluoro-5-methoxybenzyl)-5-(trifluoromethyl)-1H-pyrazole-4-carboxamide]
IC50: > 1000 nM | inhibition at 1 µM: 42%

N#Cc1cc(NC(=O)c2cnn(Cc3cccnc3)c2C(F)(F)F)cnc1-n1nccn1 [Compound 18, N-(5-cyano-6-(2H-1,2,3-triazol-2-yl)pyridin-3-yl)-1-(pyridin-3-ylmethyl)-5-(trifluoromethyl)-1H-pyrazole-4-carboxamide]
IC50: > 1000 nM | inhibition at 1 µM: 47%

N#Cc1cc(NC(=O)c2cnn(Cc3cc(F)ccc3F)c2C(F)(F)F)cnc1-n1nccn1 [Compound 29, N-(5-cyano-6-(2H-1,2,3-triazol-2-yl)pyridin-3-y1)-1-(2,5-difluorobenzyl)-5-(trifluoromethyl)-1H-pyrazole-4-carboxamide]
IC50: 251 to 1000 nM | inhibition at 1 µM: 70%

Cc1c(F)cccc1Cn1ncc(C(=O)Nc2cnc(-n3nccn3)c(Cl)c2)c1C(F)(F)F [Compound 32, N-(5-chloro-6-(2H-1,2,3-triazol-2-y1)pyridin-3-y1)-1-(3-fluoro-2-methylbenzyl)-5-(trifluoromethyl)-1H-pyrazole-4-carboxamide]
IC50: < 250 nM | inhibition at 1 µM: 99%

CC(c1ccccc1)n1ncc(C(=O)Nc2cnc(-n3nccn3)c(Cl)c2)c1C(F)(F)F (single isomer, unassigned) [Compound 5a]
IC50: 251 to 1000 nM | Percent Inhibition (1 μM): 78%

CC(c1ccccc1)n1ncc(C(=O)Nc2cnc(-n3nccn3)c(Cl)c2)c1C(F)(F)F (single isomer, unassigned) [Compound 5b]
IC50: < 250 nM | Percent Inhibition (1 μM): 99%

N#Cc1cc(NC(=O)c2cnn(Cc3cccc(Cl)c3)c2C(F)(F)F)cnc1-n1nccn1 [Compound 8, 1-(3-chlorobenzyl)-N-(5-cyano-6-(2H-1,2,3-triazol-2-y1)pyridin-3-yl)-5-(trifluoromethyl)-1H-pyrazole-4-carboxamide]
IC50: < 250 nM | inhibition at 1 µM: 87%

N#Cc1cc(NC(=O)c2cnn(Cc3ccc(F)cc3)c2C(F)(F)F)cnc1-n1nccn1 [Compound 10, N-(5-cyano-6-(2H-1,2,3-triazol-2-yl)pyridin-3-yl)-1-(4-fluorobenzyl)-5-(trifluoromethyl)-1H-pyrazole-4-carboxamide]
IC50: > 1000 nM | inhibition at 1 µM: 44%

O=C(Nc1cnc(C(=O)N2CCCC2)c(Cl)c1)c1cnn(Cc2cccc(F)c2Cl)c1C(F)(F)F [Compound 45, 1-(2-chloro-3-fluorobenzyl)-N-(5-chloro-6-(pyrrolidine-1-carbonyl)pyridin-3-yl)-5-(trifluoromethyl)-1H-pyrazole-4-carboxamide]
IC50: > 1000 nM | inhibition at 1 µM: 40%

COc1ncc(NC(=O)c2cnn(Cc3cccc(F)c3)c2C(F)(F)F)cc1Cl [Compound 22, N-(5-chloro-6-methoxypyridin-3-yl)-1-(3-fluorobenzyl)-5-(trifluoromethyl)-1H-pyrazole-4-carboxamide]
inhibition at 1 µM: 41%

COc1c(F)cccc1Cn1ncc(C(=O)Nc2cnc(-n3nccn3)c(C#N)c2)c1C(F)(F)F [Compound 39, N-(5-cyano-6-(2H-1,2,3-triazol-2-yl)pyridin-3-y1)-1-(3-fluoro-2-methoxybenzyl)-5-(trifluoromethyl)-1H-pyrazole-4-carboxamide]
IC50: < 250 nM | inhibition at 1 µM: 100%

O=C(Nc1cc(C(F)(F)F)ncn1)c1cnn(Cc2cccc(F)c2Cl)c1C(F)(F)F [Compound 44, 1-(2-chloro-3-fluorobenzyl)-5-(trifluoromethyl)-N-(6-(trifluoromethyl)pyrimidin-4-yl)-1H-pyrazole-4-carboxamide]
IC50: > 1000 nM | inhibition at 1 µM: 38%
